According to patent publication US20250074897A1, “PYRIDAZINONES AS PARP7 INHIBITORS” (Ribon Therapeutics, Inc., priority 2019, published 2025):

What follows are molecules tested against T1, PARP7 (TIPARP) (Homo sapiens, UniProt Q7Z3E1) (assay: Enzymatic assay for inhibition of PARP7: TR-FRET displacement of biotinylated Probe A from the TIPARP active site). Settings: 6 nM TIPARP, 2 nM Probe A, 25° C., 30 min incubation with test compound.
T1 sequence (Q7Z3E1 1-657): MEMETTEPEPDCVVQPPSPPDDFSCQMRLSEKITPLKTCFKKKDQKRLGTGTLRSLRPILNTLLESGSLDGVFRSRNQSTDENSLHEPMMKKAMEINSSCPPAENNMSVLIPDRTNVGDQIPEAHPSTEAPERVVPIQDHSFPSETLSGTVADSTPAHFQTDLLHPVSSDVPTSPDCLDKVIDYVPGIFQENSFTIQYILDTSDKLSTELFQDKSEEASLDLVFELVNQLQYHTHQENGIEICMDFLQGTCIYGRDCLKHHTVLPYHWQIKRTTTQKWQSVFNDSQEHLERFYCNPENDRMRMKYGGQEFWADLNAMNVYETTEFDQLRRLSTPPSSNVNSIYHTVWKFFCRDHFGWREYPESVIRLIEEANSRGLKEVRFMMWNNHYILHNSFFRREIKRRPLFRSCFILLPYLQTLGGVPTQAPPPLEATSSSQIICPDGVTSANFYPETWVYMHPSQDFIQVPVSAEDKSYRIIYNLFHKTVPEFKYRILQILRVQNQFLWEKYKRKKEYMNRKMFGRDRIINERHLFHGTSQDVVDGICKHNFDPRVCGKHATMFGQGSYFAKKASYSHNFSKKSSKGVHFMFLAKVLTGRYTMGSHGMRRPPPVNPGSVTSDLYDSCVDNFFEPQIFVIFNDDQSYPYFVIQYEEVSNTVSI
Type: binding
Experimental: Enzymatic Assay for Inhibition of PARP7
Displacement of Probe A, a biotinylated probe binding to the TIPARP active site, was measured using a time-resolved fluorescence energy transfer (TR-FRET) assay. 20 nL of a dose response curve of each test compound was spotted in black 384-well polystyrene proxiplates (Perkin Elmer) using a Mosquito (TTP Labtech). Reactions were performed in a 8 μL volume by adding 6 μL of TIPARP and Probe A in assay buffer (20 mM HEPES pH=8, 100 mM NaCl, 0.1% bovine serum albumin, 2 mM DTT and 0.002% Tween20), incubating with test compound at 25° C. for 30 min, then adding 2 μL of ULight-anti 6xHis and LANCE Eu-W1024 labeled streptavidin (Perkin Elmer). The final concentrations of TIPARP and Probe A were 6 nM and 2 nM, respectively. The final concentration of ULight-anti 6xHis and LANCE Eu-W1024 labeled streptavidin were 4 nM and 0.25 nM, respectively. Reactions were incubated at 25° C. for an additional 30 min, then read on an Envision platereader equipped with a LANCE/DELFIA top mirror (Perkin Elmer) using excitation of 320 nm and emission of 615 nm and […] with a 90 μs delay. The ratio of the 665/615 nm emission were calculated for each well to determine the amount of complex of TIPARP and Probe A in each well. Control wells containing a negative control of 0.25% DMSO vehicle or a positive control of 100 μM 5-(5-(piperidin-4-yloxy)isoindolin-2-yl)-4-(trifluoromethyl)pyridazin-3(2H)-one were used to calculate the % inhibition as described below:
where TRFempd is the TR-FRET ratio from the compound treated well, TRFmin is the TR-FRET ratio from the 5-(5-(piperidin-4-yloxy)isoindolin-2-yl)-4-(trifluoromethyl)pyridazin-3(2H)-one-treated positive control well and TRFmax is the TR-FRET ratio from the DMSO-treated negative control well.
The % inhibition values were plotted as a function of compound concentration and the following 4-parameter fit was applied to derive the IC50 values:
where top and bottom are normally allowed to float, but may be fixed at 100 or 0 respectively in a 3-parameter fit. The Hill Coefficient is normally allowed to float but may also be fixed at 1 in a 3-parameter fit. Y is the % inhibition and X is the compound concentration.

Row | IC50 [µM] | Compound
1 | < 0.1 | C[C@@H](COC[C@@H](O)C(=O)N1CCN(c2ncc(C(F)F)cn2)CC1)Oc1cn[nH]c(=O)c1C(F)(F)F [Example 11A, 5-(((S)-1-((R)-3-(4-(5-(difluoromethyl)pyrimidin-2-yl)piperazin-1-yl)-2-hydroxy-3-oxopropoxy)propan-2-yl)oxy)-4-(trifluoromethyl)pyridazin-3(2H)-one]
2 | < 0.1 | COC[C@@H](COCC(O)C(=O)N1CCN(c2ncc(C(F)(F)F)cn2)CC1)Nc1cn[nH]c(=O)c1C(F)(F)F (stereo partly drawn) [Example 14, 5-(((2S)-1-(2-hydroxy-3-oxo-3-(4-(5-(trifluoromethyl)pyrimidin-2-yl)piperazin-1-yl)propoxy)-3-methoxypropan-2-yl)amino)-4-(trifluoromethyl)pyridazin-3(2H)-one]
3 | < 0.1 | CC[C@@H](COCC(O)C(=O)N1CCN(c2ncc(C(F)(F)F)cn2)CC1)Nc1cn[nH]c(=O)c1C(F)(F)F (stereo partly drawn) [Example 15, 5-(((2S)-1-(2-hydroxy-3-oxo-3-(4-(5-(trifluoromethyl)pyrimidin-2-yl)piperazin-1-yl)propoxy)butan-2-yl)amino)-4-(trifluoromethyl)pyridazin-3(2H)-one]
4 | < 0.1 | O=C([C@H](O)COC[C@H](COC(F)(F)F)Nc1cn[nH]c(=O)c1C(F)(F)F)N1CCN(c2ncc(C(F)(F)F)cn2)CC1 [Example 16A, 5-(((R)-1-((R)-2-hydroxy-3-oxo-3-(4-(5-(trifluoromethyl)pyrimidin-2-yl)piperazin-1-yl)propoxy)-3-(trifluoromethoxy)propan-2-yl)amino)-4-(trifluoromethyl)pyridazin-3(2H)-one]
5 | < 0.1 | O=C([C@@H](O)COC[C@H](COC(F)(F)F)Nc1cn[nH]c(=O)c1C(F)(F)F)N1CCN(c2ncc(C(F)(F)F)cn2)CC1 [Example 16B, 5-(((R)-1-((S)-2-hydroxy-3-oxo-3-(4-(5-(trifluoromethyl)pyrimidin-2-yl)piperazin-1-yl)propoxy)-3-(trifluoromethoxy)propan-2-yl)amino)-4-(trifluoromethyl)pyridazin-3(2H)-one]
6 | < 0.1 | O=C(C(O)COC[C@@H]1CCN1c1cn[nH]c(=O)c1C(F)(F)F)N1CCN(c2ncc(C(F)(F)F)cn2)CC1 (stereo partly drawn) [Example 18, 5-((2S)-2-((2-hydroxy-3-oxo-3-(4-(5-(trifluoromethyl)pyrimidin-2-yl)piperazin-1-yl)propoxy)methyl)azetidin-1-yl)-4-(trifluoromethyl)pyridazin-3(2H)-one]
